Results from US20070092969A1, “Integrator system and method for rapidly determining effectiveness of a germicidal treatment” (priority 2005, published 2007).
Where two headings read alike, the source gives them in different places.

Tested on: biological indicators
Conditions: for Biological Indicator Results: STERRAD 50, 6 minutes contact, plasma 400 watts
Method: The biological indicator is placed into the sterilizer with the equipment to be sterilized. At the end of the sterilization process, the biological indicator is removed from the sterilizer, and the carrier is immersed in a sterile culture medium. The culture medium and carrier are incubated for a predetermined time at an appropriate temperature. At the end of the incubation period, it is determined whether any microorganisms have grown in the growth medium. If there is no growth of microorganisms in the growth medium, it is assumed that the equipment in the sterilizer has been properly sterilized. If microorganism growth is observed, the sterilization process was not effective, and the articles in the sterilizer are rejected for use. The growth of microorganisms is determined through a signal such as the generation of turbidity or a color change in a pH indicator due to a pH change from byproducts of cell growth in the medium. Biological indicators are described, for example, in U.S. Pat. Nos. 5,552,320 and 6,436,659, both of which are incorporated herein by reference in their entirety.
A series of integrators was prepared by contacting paper disks with an aqueous solution of arginine. The integrators were placed in a STERRAD® 50 sterilizer with a load of equipment to be sterilized and several biological indicators. The paper disks are absorbing substrates.
The sterilizer was evacuated to 0.8 torr. Plasma was produced in the chamber for 15 minutes to condition the load. The sterilizer was evacuated further to 0.4 torr, and hydrogen peroxide was injected and contacted with the load, integrators, and biological indicators for 6 minutes.
The sterilizer was vented with air for 2 minutes. The sterilizer was evacuated again to 0.5 torr, and plasma was produced for an additional 2 minutes. The plasma power was 400 watts for both plasma exposures.

OO [Hydrogen Peroxide, hydrogen peroxide]
Biological indicator (BI) result (Hydrogen peroxide injection of 300 μL in the STERRAD 50 sterilizer): negative | Biological Indicator Results (Hydrogen peroxide injection volume 100 μL): 100% positive | Biological Indicator Results (Hydrogen peroxide injection volume 250 μL): 40% positive | Biological Indicator Results (Hydrogen peroxide injection volume 400 μL): 0% positive | Biological Indicator Results (Hydrogen peroxide injection volume 500 μL): 0% positive
